# Test results taken from EP4682145A1, “BENZOHETEROCYCLIC COMPOUND, AND PREPARATION METHOD THEREFOR AND USE THEREOF” (Cascade Pharmaceuticals, Inc., priority 2023, dated 2024).
# Molecular target: T1, human FFAR1 (GPR40) (Homo sapiens, UniProt O14842)
# T1 construct: Flag; expressed in transfected cells; host or cells: HEK293T
# Assay: NFAT-RE-based reporter gene activity assay (Dual-Glo luciferase) for GPR40 agonistic activity in co-transfected HEK293T cells
# Format: cell-based
# Details: 4-hour treatment
# Procedure, shortened: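 HEK293T cells co-transfected with human FFAR1, NFAT-RE firefly luciferase and TK-Renilla plasmids; 24 h later treated 4 h with 10 half-log compound dilutions from 1 µM. Firefly/Renilla ratio normalised to DMSO; EC50 from four-parameter fit.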
# T1 sequence (O14842 whole entry): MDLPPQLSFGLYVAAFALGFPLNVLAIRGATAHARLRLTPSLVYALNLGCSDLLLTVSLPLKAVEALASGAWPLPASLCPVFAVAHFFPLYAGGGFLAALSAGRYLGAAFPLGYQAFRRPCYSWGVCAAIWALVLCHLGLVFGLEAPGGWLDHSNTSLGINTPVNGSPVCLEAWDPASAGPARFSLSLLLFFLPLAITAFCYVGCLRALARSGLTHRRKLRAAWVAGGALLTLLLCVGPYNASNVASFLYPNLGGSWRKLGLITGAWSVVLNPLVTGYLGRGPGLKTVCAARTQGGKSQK
row,SMILES,EC50
1,COc1ccc(F)c(N2CCC(c3oc4cc(C(CC(=O)O)C5CC5)ccc4c3CC(C)OC)CC2)c1 (stereo not drawn) [Compound 394],> 500 nM
2,COc1ccc(F)c(N2CCC(c3oc4cc(C(CC(=O)O)C5CC5)ccc4c3CC(C)=O)CC2)c1 (stereo not drawn) [Compound 395],100 to 500 nM
3,COc1cccc(N2CCC(c3oc4cc([C@@H](CC(=O)O)C5CC5)ccc4c3COC(=O)C(C)(C)C)CC2)c1 [Compound 398],100 to 500 nM
4,COc1cccc(N2CCC(c3oc4cc([C@@H](CC(=O)O)C5CC5)ccc4c3C3OCC(C)(C)CO3)CC2)c1 [Compound 399],100 to 500 nM
5,COc1cccc(N2CCC(c3oc4cc(C(CC(=O)O)C5CC5)ccc4c3C3O[C@@H](C)[C@H](C)O3)CC2)c1 (stereo partly drawn) [Compound 400],100 to 500 nM
6,COc1cccc(N2CCC(c3oc4cc([C@@H](CC(=O)O)C5CC5)ccc4c3COc3ccccc3)CC2)c1 [Compound 404],100 to 500 nM
7,COc1cccc(N2CCC(c3oc4cc([C@@H](CC(=O)O)C5CC5)ccc4c3C(C)OC)CC2)c1 (stereo partly drawn) [Compound 406],100 to 500 nM
8,CCOC(C)c1c(C2CCN(c3cccc(OC)c3)CC2)oc2cc([C@@H](CC(=O)O)C3CC3)ccc12 (stereo partly drawn) [Compound 407],100 to 500 nM
9,CCCOC(C)c1c(C2CCN(c3cccc(OC)c3)CC2)oc2cc([C@@H](CC(=O)O)C3CC3)ccc12 (stereo partly drawn) [Compound 408],100 to 500 nM
10,COc1cccc(N2CCC(c3oc4cc([C@@H](CC(=O)O)C5CC5)ccc4c3C(C)OCC(C)C)CC2)c1 (stereo partly drawn) [Compound 409],10 to 100 nM
11,CCCCOC(C)c1c(C2CCN(c3cccc(OC)c3)CC2)oc2cc([C@@H](CC(=O)O)C3CC3)ccc12 (stereo partly drawn) [Compound 410],100 to 500 nM
12,COc1cccc(N2CCC(c3oc4cc([C@@H](CC(=O)O)C5CC5)ccc4c3C(C)OCC(C)(C)C)CC2)c1 (stereo partly drawn) [Compound 411],10 to 100 nM
13,COc1cccc(N2CCC(c3oc4cc([C@@H](CC(=O)O)C5CC5)ccc4c3C(C)OCCC(C)(C)C)CC2)c1 (stereo partly drawn) [Compound 412],100 to 500 nM
14,CCC(C)COC(C)c1c(C2CCN(c3cccc(OC)c3)CC2)oc2cc([C@@H](CC(=O)O)C3CC3)ccc12 (stereo partly drawn) [Compound 413],100 to 500 nM
15,COc1cccc(N2CCC(c3oc4cc([C@@H](CC(=O)O)C5CC5)ccc4c3C(C)OCC[C@@H](C)CCCC(C)C)CC2)c1 (stereo partly drawn) [Compound 414],> 500 nM
16,COc1cccc(N2CCC(c3oc4cc([C@@H](CC(=O)O)C5CC5)ccc4c3C(C)OCC[C@@H](C)CCC=C(C)C)CC2)c1 (stereo partly drawn) [Compound 415],> 500 nM
17,CCC(OCC(C)(C)C)c1c(C2CCN(c3cccc(OC)c3)CC2)oc2cc([C@@H](CC(=O)O)C3CC3)ccc12 (stereo partly drawn) [Compound 416],10 to 100 nM
18,COc1cccc(N2CCC(c3oc4cc([C@@H](CC(=O)O)C5CC5)ccc4c3C(C)OCC3CC3)CC2)c1 (stereo partly drawn) [Compound 417],100 to 500 nM

# Same assay, conditions: 4-hour treatment, class symbols
row,SMILES,Efficacy (%)
1,COc1ccc(F)c(N2CCC(c3oc4cc(C(CC(=O)O)C5CC5)ccc4c3CC(C)OC)CC2)c1 (stereo not drawn) [Compound 394],†† (150 ≥ Efficacy (%) > 100)
2,COc1ccc(F)c(N2CCC(c3oc4cc(C(CC(=O)O)C5CC5)ccc4c3CC(C)=O)CC2)c1 (stereo not drawn) [Compound 395],† (100 ≥ Efficacy (%) > 50)
3,COc1cccc(N2CCC(c3oc4cc([C@@H](CC(=O)O)C5CC5)ccc4c3COC(=O)C(C)(C)C)CC2)c1 [Compound 398],††† (Efficacy (%) > 150)
4,COc1cccc(N2CCC(c3oc4cc([C@@H](CC(=O)O)C5CC5)ccc4c3C3OCC(C)(C)CO3)CC2)c1 [Compound 399],†† (150 ≥ Efficacy (%) > 100)
5,COc1cccc(N2CCC(c3oc4cc(C(CC(=O)O)C5CC5)ccc4c3C3O[C@@H](C)[C@H](C)O3)CC2)c1 (stereo partly drawn) [Compound 400],† (100 ≥ Efficacy (%) > 50)
6,COc1cccc(N2CCC(c3oc4cc([C@@H](CC(=O)O)C5CC5)ccc4c3COc3ccccc3)CC2)c1 [Compound 404],†† (150 ≥ Efficacy (%) > 100)
7,COc1cccc(N2CCC(c3oc4cc([C@@H](CC(=O)O)C5CC5)ccc4c3C(C)OC)CC2)c1 (stereo partly drawn) [Compound 406],††† (Efficacy (%) > 150)
8,CCOC(C)c1c(C2CCN(c3cccc(OC)c3)CC2)oc2cc([C@@H](CC(=O)O)C3CC3)ccc12 (stereo partly drawn) [Compound 407],††† (Efficacy (%) > 150)
9,CCCOC(C)c1c(C2CCN(c3cccc(OC)c3)CC2)oc2cc([C@@H](CC(=O)O)C3CC3)ccc12 (stereo partly drawn) [Compound 408],††† (Efficacy (%) > 150)
10,COc1cccc(N2CCC(c3oc4cc([C@@H](CC(=O)O)C5CC5)ccc4c3C(C)OCC(C)C)CC2)c1 (stereo partly drawn) [Compound 409],††† (Efficacy (%) > 150)
11,CCCCOC(C)c1c(C2CCN(c3cccc(OC)c3)CC2)oc2cc([C@@H](CC(=O)O)C3CC3)ccc12 (stereo partly drawn) [Compound 410],††† (Efficacy (%) > 150)
12,COc1cccc(N2CCC(c3oc4cc([C@@H](CC(=O)O)C5CC5)ccc4c3C(C)OCC(C)(C)C)CC2)c1 (stereo partly drawn) [Compound 411],†† (150 ≥ Efficacy (%) > 100)
13,COc1cccc(N2CCC(c3oc4cc([C@@H](CC(=O)O)C5CC5)ccc4c3C(C)OCCC(C)(C)C)CC2)c1 (stereo partly drawn) [Compound 412],††† (Efficacy (%) > 150)
14,CCC(C)COC(C)c1c(C2CCN(c3cccc(OC)c3)CC2)oc2cc([C@@H](CC(=O)O)C3CC3)ccc12 (stereo partly drawn) [Compound 413],††† (Efficacy (%) > 150)
15,COc1cccc(N2CCC(c3oc4cc([C@@H](CC(=O)O)C5CC5)ccc4c3C(C)OCC[C@@H](C)CCCC(C)C)CC2)c1 (stereo partly drawn) [Compound 414],††† (Efficacy (%) > 150)
16,COc1cccc(N2CCC(c3oc4cc([C@@H](CC(=O)O)C5CC5)ccc4c3C(C)OCC[C@@H](C)CCC=C(C)C)CC2)c1 (stereo partly drawn) [Compound 415],††† (Efficacy (%) > 150)
17,CCC(OCC(C)(C)C)c1c(C2CCN(c3cccc(OC)c3)CC2)oc2cc([C@@H](CC(=O)O)C3CC3)ccc12 (stereo partly drawn) [Compound 416],†† (150 ≥ Efficacy (%) > 100)
18,COc1cccc(N2CCC(c3oc4cc([C@@H](CC(=O)O)C5CC5)ccc4c3C(C)OCC3CC3)CC2)c1 (stereo partly drawn) [Compound 417],††† (Efficacy (%) > 150)
